Experiments:
[1] = biological target: T1, human leukocyte elastase (HLE) (Homo sapiens, UniProt P08246); assay: anti-elastase activity in vitro against human leukocyte elastase (HLE), substrate Me-OSAAPV-p-NA, spectrophotometry; assay type: biochemical
T1 sequence (P08246 30-267): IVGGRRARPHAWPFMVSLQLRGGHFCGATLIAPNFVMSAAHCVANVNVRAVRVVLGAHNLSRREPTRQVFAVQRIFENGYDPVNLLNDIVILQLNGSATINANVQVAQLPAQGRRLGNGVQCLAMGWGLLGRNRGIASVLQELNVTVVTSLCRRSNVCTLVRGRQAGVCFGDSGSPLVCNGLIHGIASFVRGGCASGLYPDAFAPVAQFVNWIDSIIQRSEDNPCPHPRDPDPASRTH
Experimental: The anti-elastase activity of compounds according to the invention was determined in vitro against human leukocyte elastase (HLE)
(§1) The test was performed in the following manner:
A substrate Me-OSAAPV-p-NA (methyl-O-succinate alanine alanine proline valine-p-nitroanilide) to which is added the HLE (40 milliunits per ml) and 0.1% of the test compound is incubated at 37° C. for 60 minutes.
The % of inhibition of the elastase activity tested is then determined by spectrophotometry.
In the same manner the % of inhibition of the control elastase activity was determined for the compound A at different concentrations

[2] = system: surviving human skins irradiated by UVA; assay: activity on surviving human skins irradiated by UVA (8 J/cm2), morphometry of elastin fibres and collagen (Example 6); conditions: UVA 8 J/cm2 + 5 μl compound at 0.2% in ethanol every two days, 7 days at 37° C.
Experimental: The activity of the compound of Example 2 was evaluated on irradiated surviving human skins irradiated by UVA (8 J/cm2).
(§2) The test is performed in the following manner:
(§3) Fragments of normal human skin derived from four different donors are deposited in inserts placed in culture wells. Culture medium supplemented with antibiotics is added to the bottom of the wells. Passage by slow diffusion occurs between the two compartments through the intermediary of a porous membrane (pore size: 12 μm).
(§4) The culture medium is renewed every three days.
Every two days 5 μl of the test compound previously dissolved at 0.2% in ethanol are added to the skin fragments.
The skins are maintained in survival for 7 days at 37° C.
The skins are irradiated once only at 8 J/cm2 (Vilbert-Lourmat RMX-3W lamp).
(§5) The elastin fibres are stained blue with (+) catechol and quantified morphometrically by computer-assisted image analysis. The mean percentage dermal surface area occupied by the elastin fibres was thus evaluated.

[3] = system: surviving human skins treated with human leukocyte elastase (HLE); assay: ex vivo activity on fresh sections of surviving human skins treated with HLE, morphometry of elastin fibres (Example 4); conditions: HLE 10 μg/ml + 0.1% test compound, 2 hours at 20° C.
Experimental: (§6) The ex vivo activity of the compound of Example 2 was evaluated on surviving human skins treated with human leukocyte elastase (HLE).
as §2
Fresh sections of human skins derived from 2 different donors are treated for 2 hours at 20° C. with 20 μl of buffer solution (pH 7.4) containing optionally 10 μg/ml of HLE and optionally 0.1% of the test compound, optionally previously dissolved in ethanol.
The elastin fibres are stained blue with (+) catechol and quantified morphometrically by computer-assisted image analysis. The percentage of mean dermal surface occupied by the elastin fibres is thus evaluated

[4] = system: surviving human skins treated with human leukocyte elastase (HLE); assay: ex vivo activity on human skin fragments kept in survival 10 days with HLE, morphometry of elastin fibres (Example 5); conditions: three donors, mean; HLE 0.5 μg/ml + 5 μl compound at 0.2% in ethanol every two days, 10 days at 37° C.; HLE alone 5.1%, untreated 7.4%
Experimental: as §6, §1
as §3, with “three” for “four”
as §4
Optionally 0.5 μg of HLE per ml of culture medium is added to the skin fragments.
5 μl of test compound previously dissolved at 0.2% by weight in ethanol are also added every two days.
The skins are maintained in survival for 10 days at 37° C.,
as §5

Row | inhibition of the elastase activity (in words) ([1]; even at low concentration) | SMILES | Morphometric analysis of elastin fibres (superficial dermis) ([2]; UVA alone 3.9%, untreated 6.75%) [%] | Morphometric analysis of collagen (superficial dermis) ([2]; UVA alone 81%, untreated 87%) [%] | % surface occupied by elastin fibres ([3]; Skin 1, HLE alone 4.85%, untreated 12.7%) [%] | % surface occupied by elastin fibres ([3]; Skin 2, HLE alone 6.85%, untreated 15.25%) [%] | % surface occupied by elastin fibres [4] [%] | % inhibition of elastase activity tested ([1]; compound concentration 0.1%, HLE 40 milliunits per ml, 37° C., 60 minutes) [%]
1 | strong inhibition | CC(=O)N(c1cccc(C(F)(F)F)c1)C(C(=O)NCC(=O)O)C(C)C (stereo not shown) [Compound A, {2-[acetyl-(3-trifluoromethyl-phenyl)-amino]-3-methyl-butyrylamino}acetic acid] | 6.8 | 92 | 13.95 | 11.85 | 7.1 | –
2 | – | CCOC(=O)CNC(=O)C(C(C)C)N(Cc1ccccc1)C(=O)CP(=O)(OCC)OCC (stereo not shown) [Compound B, (2-{benzyl-[(diethoxy-phosphoryl)-acetyl]-amino}-3-methyl-butyrylamino) ethyl acetate] | – | – | – | – | – | 17
